# From patent US20200061038A1, “THERAPEUTIC AGENT FOR FIBROSIS AND INHIBITOR OF NUCLEAR TRANSLOCATION OF PHOSPHORYLATED SMAD” (NATIONAL UNIVERSITY CORPORATION CHIBA UNIVERSITY, priority 2016, published 2020)
# Key:
# Smad2 [1] = experiment: Smad2 phosphorylation (western blot) in HFL1 cells; type: cell-based, human; conditions: for phosphorylation level of Smad2 (ROCK pathway): Y27632 20 μM, Cytochalasin B 2 μM; for phosphorylation level of Smad2 (ROCK pathway) / phosphorylation level of Smad2 due to TGFβ1 treatment (PKC inhibitors): TGFβ1 10 ng/mL; for phosphorylation level of Smad2 due to TGFβ1 treatment (PKC inhibitors): GF109203X 10 μM, Rottlerin 1 μM
# Experimental: HFL1 cells were inoculated onto a six-well plate by 1.0×10^5 cells/well, and then cultured in 2.0 mL of DMEM containing 10% FBS, to achieve 70% confluence. The cells were washed using Hanks' balanced salt solution (HBSS) containing 0.1% bovine serum albumin (BSA) (4.2 mM NaHCO3, 137 mM NaCl, 5.36 mM KCl, 0.4 mM MgSO4.7H2O, 0.34 mM Na2HPO4.12H2O, 5.55 mM glucose, 0.44 mM KH2PO4, 0.72 mM CaCl2.H2O, pH=7.4), and then cultured in a DMEM containing 0.1% BSA for 48 hours without serum.
# Thereafter, the medium was replaced by a DMEM containing 0.1% BSA, and stimulation was given for a specified period using each reagent (each inhibitor was applied 30 minutes before the stimulant), after which the cells were collected on ice using 100 μL of RIPA buffer (150 mM NaCl, 50 mM Tris-HCl, 5 mM EDTA, 5 mM NaF, 10 mM sodium pyrophosphate dibasic, 1% Nonidet P-40, 0.1% sodium dodecyl sulfate, 0.5% sodium deoxycholate, pH 8.0) containing 10 μg/mL aprotinin, 10 μg/mL leupeptin, and phenyl methyl sulfonyl fluoride (PMSF) as a protease inhibitor.
# The cells were crushed according to the vortex method, centrifuged under the conditions of 15000 rpm and 4° C. for 30 minutes, and the supernatant was taken as a sample. Quantitative determination of protein was performed according to the Bradford method, and a specified amount of protein was separated by SDS-polyacrylic amide gel electrophoresis. The protein was transferred onto a polyvinylidene difluoride (PVDF) film, blocked for 1 hour at room temperature, with a primary antibody applied overnight at 4° C., and a secondary antibody applied for 1 hour at room temperature.
# Thereafter, the PVDF film was soaked in an ECL solution and fluorometric detection was performed using an image capture/analysis system (ChemiDocMP System manufactured by Bio-Rad). The detected bands were converted to numerical values using image processing software (ImageJ).
# Smad2 [2] = experiment: Smad2 nuclear localization (immunofluorescent staining, confocal) in HFL1 cells; type: cell-based, human; conditions: TGFβ1 10 ng/mL; for nuclear localization of Smad2 due to TGFβ1 (PKC inhibitors): GF109203X 10 μM, Rottlerin 1 μM, GO06976 1 μM
# Experimental: For immunostaining of Smad and phosphorylated Smad, ribonuclease A (RNase, Worthington Biochemical) (200 μg/mL, room temperature, 30 minutes) and propidium iodide (PI, Cayman Chemical) (20 μg/mL, room temperature, 30 minutes) were applied to stain the nucleus, and the stained images were observed using a confocal microscope (FV500 manufactured by Olympus).
# When localization of Smad2/3 was observed, on the other hand, Smad2/3 accumulated in the nucleus in 3 hours after the single stimulation of TGFβ1 (10 ng/mL).
# αSMA = αSMA expression (western blot) in TGFβ1-stimulated HFL1 cells; type: cell-based, human; conditions: for increase in the αSMA expression level due to TGFβ1 (PKC inhibitors): GF109203X 10 μM, Rottlerin 1 μM, GO06976 0.5 μM and 1.0 μM, 30 minutes before TGFβ1 10 ng/mL; for αSMA expression level recovered, relative to the level when TGFβ1 alone was applied: used together with PPMP (3 μM), lactosylceramide 10 μM
# Experimental: Human pulmonary fibroblast (HFL1) (ATCC CCL-153) cells were cultured under the conditions of 95% air-5% CO2 and 37° C., using a Dulbecco's Modified Eagle Medium (DMEM) containing 10% fetal bovine serum (FBS), 100 μg/mL streptomycin, and 66.7 μg/mL penicillin.
# How an increase in lactosylceramide synthesis activity due to TGFβ1 affects the fibrosing of tissues was examined based on the expression level of αSMA, which is a fibrosing marker protein.
# PKCδ = experiment: Translocation of PKCδ into the cellular membrane in HFL1 cells; type: cell-based, human
# Experimental: HFL1 cells were inoculated onto a 3.5-cm glass-bottom dish by 1.0×10^4 cells/dish, and then cultured in 2.0 mL of DMEM containing 10% FBS, to achieve 70% confluence. The cells were washed in HBSS containing 0.1% BSA, and then cultured in DMEM containing 0.1% BSA for 48 hours without serum.
# Thereafter, the medium was replaced by a DMEM containing 0.1% BSA, and stimulation was given for a specified period using each reagent (each inhibitor was applied 30 minutes before the stimulant), after which each sample was fixed with 4% paraformaldehyde (PFA) at 4° C. for 15 minutes. Thereafter, as deemed appropriate, the sample was permeabilized (0.3% saponin, room temperature, 1 hour) and blocked (3% BSA, room temperature, 1 hour), with a primary antibody applied overnight at 4° C., and a secondary antibody applied for 1 hour at room temperature. For immunostaining of Smad and phosphorylated Smad, ribonuclease A (RNase, Worthington Biochemical) (200 μg/mL, room temperature, 30 minutes) and propidium iodide (PI, Cayman Chemical) (20 μg/mL, room temperature, 30 minutes) were applied to stain the nucleus, and the stained images were observed using a confocal microscope (FV500 manufactured by Olympus).
# In general, activation of PKC is observed in the form of its translocation into the cellular membrane; accordingly, involvement of lactosylceramide was examined using the translocation of PKCδ into the cellular membrane as an indicator.
# [3] = system: idiopathic pulmonary fibrosis; conditions: patients suffering from idiopathic pulmonary fibrosis; Non-patent Literature 2; cited from earlier work
compound,measurement,setting,value
C=C1[C@@H](C)[C@H]2[C@H](Cc3ccccc3)NC(=O)[C@]23OC(=O)/C=C/[C@H](O)CCC[C@@H](C)C/C=C/[C@H]3[C@@H]1O [Cytochalasin B],phosphorylation level of Smad2 (ROCK pathway),Smad2 [1],the phosphorylation level did not change
CN(C)CCCn1cc(C2=C(c3c[nH]c4ccccc34)C(=O)NC2=O)c2ccccc21 [GF109203X],nuclear localization of Smad2 due to TGFβ1 (PKC inhibitors),Smad2 [2],suppressed significantly
same,increase in the αSMA expression level due to TGFβ1 (PKC inhibitors),αSMA,suppressed significantly
same,phosphorylation level of Smad2 due to TGFβ1 treatment (PKC inhibitors),Smad2 [1],no change was observed
Cn1c2ccccc2c2c3c(c4c5ccccc5n(CCC#N)c4c21)CNC3=O [GO06976],nuclear localization of Smad2 due to TGFβ1 (PKC inhibitors),Smad2 [2],did not change
same,increase in the αSMA expression level due to TGFβ1 (PKC inhibitors),αSMA,did not suppress the increase in the αSMA expression level
"CCCCCCCCCCCCCC(=O)O[C@@H]1[C@@H](C)[C@@]2(O)[C@@H](C=C(CO)C[C@]3(O)C(=O)C(C)=C[C@@H]23)[C@@H]2C(C)(C)[C@]12OC(C)=O [PMA, phorbol myristate acetate]",increase in the αSMA expression level due to TGFβ1 (PKC down-regulation),"αSMA; PMA 100 nM overnight treatment, TGFβ1 10 ng/mL",suppressed the increase in the αSMA expression level
CC(=O)c1c(O)c(C)c(O)c(Cc2c(O)c3c(c(C(=O)/C=C/c4ccccc4)c2O)OC(C)(C)C=C3)c1O [Rottlerin],nuclear localization of Smad2 due to TGFβ1 (PKC inhibitors),Smad2 [2],suppressed significantly
same,increase in the αSMA expression level due to TGFβ1 (PKC inhibitors),αSMA,suppressed significantly
same,phosphorylation level of Smad2 due to TGFβ1 treatment (PKC inhibitors),Smad2 [1],no change was observed
same,translocation of PKCδ into the cellular membrane due to TGFβ1,"PKCδ; PPMP 3 μM, Rottlerin 1 μM applied beforehand, two hours after TGFβ1 10 ng/mL",translocation of PKCδ into the cellular membrane was suppressed
C[C@@H](N)[C@H]1CC[C@H](C(=O)Nc2ccncc2)CC1 [Y27632],phosphorylation level of Smad2 (ROCK pathway),Smad2 [1],the phosphorylation level did not change
COC(=O)c1ccc2c(c1)NC(=O)/C2=C(\Nc1ccc(N(C)C(=O)CN2CCN(C)CC2)cc1)c1ccccc1 [nintedanib],forced vital capacities of patients,[3],improve the forced vital capacities
same,survival periods of patients,[3],cannot extend the survival periods
Cc1ccc(=O)n(-c2ccccc2)c1 [pirfenidone],forced vital capacities of patients,[3],improve the forced vital capacities
same,survival periods of patients,[3],cannot extend the survival periods
glucosylceramide,"αSMA expression level recovered, relative to the level when TGFβ1 alone was applied",αSMA; TGFβ1 10 ng/mL,approx. 80%
lactosylceramide,"accumulation of Smad2 in the nucleus, combined use with PPMP",Smad2 [2]; lactosylceramide 10 μM combined with PPMP,"led to a recovery of the suppression action due to PPMP, and Smad2 accumulated in the nucleus"
same,recovery of the αSMA expression level suppression action,"αSMA; lactosylceramide 10 μM in combined use with PPMP or NB-DNJ, TGFβ1 10 ng/mL",led to a recovery of the αSMA expression level suppression action
same,"αSMA expression level recovered, relative to the level when TGFβ1 alone was applied",αSMA; TGFβ1 10 ng/mL,approx. 95%
same,phosphorylation of Smad2 by the substance alone,"Smad2 [1]; lactosylceramide 10 μM alone, no TGFβ1",did not cause phosphorylation of Smad2
same,time the localization of PKCδ on the cellular membrane was sustained,PKCδ; lactosylceramide 10 μM alone,at least 30 minutes
same,translocation of PKCδ into the cellular membrane by the substance alone,"PKCδ; lactosylceramide 10 μM alone, five minutes after the stimulation",translocation of PKCδ into the cellular membrane was observed
